Laboratory results: article PMC7117802 (ChemMedChem, 2020)

Key:
[1] = assay type: in vitro ADME, mouse; conditions: 1 μM, 37 °C
[2] = Stability of DT3-F2 in microsomes over 60 min, normal phase LC-fluorescence; assay type: in vitro ADME, mouse; conditions: 37 °C, no NADPH, fluorescence detection
[3] = Chemical stability in 15% aqueous NaOH; assay type: physicochemical; conditions: 30 min, data not shown
[4] = Metabolic stability in mouse liver microsomes with or without NADPH
in vitro = conditions: mouse, microsomes
[5] = Reactivity of model compound 3 with nucleophiles; assay type: physicochemical
[6] = ref [2]; cited from earlier work
[7] = mouse, 1 μM, pH 7.4
[8] = pH 7.4, % remaining at 30 min with NADPH
[9] = pH 7.4, % remaining at 30 min without NADPH

C/C(=C\CC/C(C)=C/CC[C@]1(C)CCc2cc(O)cc(C)c2O1)CCC=C(CF)CF [DT3-F2 (1), (R)-2-((3E,7E)-13-Fluoro-12-(fluoromethyl)-4,8-dimethyltrideca-3,7,11-trien-1-yl)-2,8-dimethylchroman-6-ol]
Decrease of compound after incubation with active mouse liver microsomes ([1]; 10 min, microsomes + buffer, no NADPH): ~ 50% | Degradation with mouse liver microsomes + NADPH, compared with microsomes alone ([1]; up to 10 min, NADPH present): More degradation | Stability in buffer (PBS) alone ([1]; up to 10 min, PBS): stable | Parent peak after incubation in mouse liver microsomes [2]: no longer detectable | Stability when stirred in 15% aqueous NaOH [3]: remained intact | Degradation in mouse liver microsomes in the presence of NADPH (in words) ([4]; with NADPH, 30 min): exhausted (below detection limit) | Degradation in mouse liver microsomes in the absence of NADPH (in words) ([4]; without NADPH, 30 min): exhausted (below detection limit)

CC(C)NCC(O)COc1cccc2ccccc12 (stereo not drawn) [Propranolol]
half-life at 1 μM (in vitro; pH 7.4): 0.417 ± 0.16 h | remaining at 0.5 h, 1 μM (in vitro; [8]): 14.5 ± 10.4% | remaining at 0.5 h, 1 μM (in vitro; [9]): 107 ± 8.9%

C/C(=C\CS(=O)(=O)c1ccccc1)CCC=C(CF)CF [compound 3, (E)-((8-Fluoro-7-(fluoromethyl)-3-methylocta-2,6-dien-1-yl)sulfonyl) benzene]
Reaction with morpholine in HBD solvents ([5]; hydrogen-bond donor solvents, 70 °C, Figure S3): able to react | Reaction with N-acetyl cysteine (NAC) ([5]; nucleophilic sulfide NAC, Figure S2): No reaction

CC(C)=CCC/C(C)=C/CC/C(C)=C/CC[C@]1(C)CCc2cc(O)c(C)c(C)c2O1 [γ-tocotrienol]
Plasma elimination half-life [6]: short

CC(C)=CCC/C(C)=C/CC/C(C)=C/CC[C@]1(C)CCc2cc(O)cc(C)c2O1 [δ-Tocotrienol]
Clin,u [7]: 5240 ± 819.7 µL/min/mg | Plasma elimination half-life [6]: short | remaining at 0.5 h, 1 μM (in vitro; [8]): 63.7 ± 6.7% | remaining at 0.5 h, 1 μM (in vitro; [9]): 100 ± 6.6% | half-life at 1 μM ([4]; mouse, microsomes, pH 7.4): 1.8 ± 0.287 h
